Measurements published in patent US8883748B2, “Formulation for treating fungal infection” (Lifecare Innovations Pvt. Ltd., priority 2009, dated 2014).
Values after ≈ are worked out from the molar mass of the structure shown.

Tests used:
Test in all cases: In-vitro antifungal spectrum and MIC, clinical isolates
Type in all cases: cell-based
[1] = test system: Fusarium spp.; conditions: for MIC: in µg/mL (unit assumed)
Experimental: (§1) The experiments were carried out to determine antifungal spectrum and MIC of Nanosomal Amphotericin B vis-à-vis commonly used antifungals viz.
(§2) Amphotericin B, Voriconazole, Itraconazole and Fluconazole to ascertain efficacy against pathogenic yeasts and moulds including dermatophytes.

[2] = test system: Mucor spp.; conditions: for MIC: in µg/mL (unit assumed)
Experimental: as §1, §2

[3] = test system: Trichophyton mentagrophytes; conditions: for MIC: in µg/mL (unit assumed)
Experimental: as §1, §2

[4] = test system: Absidia corymbifera; conditions: for MIC: in µg/mL (unit assumed)
Experimental: as §1, §2

[5] = test system: Aspergillus flavus, A. fumigatus; conditions: for MIC: in µg/mL (unit assumed)
Experimental: as §1, §2

[6] = test system: Cladophialophora bantiana; conditions: for MIC: in µg/mL (unit assumed)
Experimental: as §1, §2

[7] = test system: Rhizopus arrhizus, R. pusilus; conditions: for MIC: in µg/mL (unit assumed)
Experimental: as §1, §2

[8] = test system: Aspergillus oryzae; conditions: for MIC: in µg/mL (unit assumed)
Experimental: as §1, §2

[9] = test system: Scytalidum dimidatum; conditions: for MIC: unit assumed
Experimental: as §1, §2

[10] = test system: Apophysomyces elegans; conditions: for MIC: unit assumed
Experimental: as §1, §2

[11] = test system: Alternaria spp.; conditions: for MIC: in µg/mL (unit assumed)
Experimental: as §1, §2

[12] = test system: Paeciliomyces spp.; conditions: for MIC: in µg/mL (unit assumed)
Experimental: as §1, §2

[13] = test system: Pseudallescheria boydii; conditions: for MIC: in µg/mL (unit assumed)
Experimental: as §1, §2

[14] = test system: Candida albicans; conditions: for MIC: in µg/mL (unit assumed)
Experimental: as §1, §2

[15] = test system: Trichophyton rubrum; conditions: for MIC: in µg/mL (unit assumed)
Experimental: as §1, §2

[16] = test system: Curvularia spp.; conditions: for MIC: in µg/mL (unit assumed)
Experimental: as §1, §2

[17] = test system: Microsporum gypseum; conditions: for MIC: in µg/mL (unit assumed)
Experimental: as §1, §2

[18] = test system: Sporothrix schenckii; conditions: for MIC: in µg/mL (unit assumed)
Experimental: as §1, §2

[19] = test system: Phialophora verrucosa; conditions: for MIC: unit assumed
Experimental: as §1, §2

[20] = test system: Cryptococcus neoformans; conditions: for MIC: in µg/mL (unit assumed)
Experimental: as §1, §2

[21] = test system: Penicillium marneffei; conditions: for MIC: in µg/mL (unit assumed)
Experimental: as §1, §2

C[C@@H]1[C@H](O)[C@@H](C)/C=C/C=C/C=C/C=C/C=C/C=C/C=C/[C@H](O[C@@H]2O[C@H](C)[C@@H](O)[C@H](N)[C@@H]2O)C[C@@H]2O[C@](O)(C[C@@H](O)C[C@@H](O)[C@H](O)CC[C@@H](O)C[C@@H](O)CC(=O)O[C@H]1C)C[C@H](O)[C@H]2C(=O)O [Amphotericin B]
Susceptibility category [1]: Active | MIC [1]: 0.5-1 | Susceptibility category [2]: Active | MIC [2]: 1-2 | Susceptibility category [3]: Active | MIC [3]: 0.5-2 | Susceptibility category [4]: Active | MIC [4]: 0.5 | Susceptibility category [5]: Active | MIC [5]: 0.5-2 | Susceptibility category [6]: Active | MIC [6]: 0.5-1 | Susceptibility category [7]: Active | MIC [7]: 0.5-2 | Susceptibility category [8]: Intermediate | MIC [8]: 2-4 | Susceptibility category [9]: Active | MIC [9]: 0.5 µg/mL (≈ 0.541 µM) | Susceptibility category [10]: Active | MIC [10]: 2 µg/mL (≈ 2.16 µM) | Susceptibility category [11]: Active | MIC [11]: 1-2 | Susceptibility category [12]: Intermediate | MIC [12]: 1-4 | Susceptibility category [13]: Active | MIC [13]: 0.5-1 | Susceptibility category [14]: Active | MIC [14]: 0.125-1 | Susceptibility category [15]: Active | MIC [15]: 0.25-1 | Susceptibility category [16]: Active | MIC [16]: 0.125-1 | Susceptibility category [17]: Active | MIC [17]: 0.5 | Susceptibility category [18]: Active | MIC [18]: 0.5-1 | Susceptibility category [19]: Intermediate | MIC [19]: 4 µg/mL (≈ 4.33 µM) | Susceptibility category [20]: Active | MIC [20]: 0.25-1 | Susceptibility category [21]: Active | MIC [21]: 0.25-1

OC(Cn1cncn1)(Cn1cncn1)c1ccc(F)cc1F [Fluconazole]
Susceptibility category [1]: Resistant | MIC [1]: 16-64 | Susceptibility category [2]: Resistant | MIC [2]: 64 | Susceptibility category [3]: Resistant | MIC [3]: 32-64 | Susceptibility category [4]: Resistant | MIC [4]: 64 | Susceptibility category [5]: Resistant | MIC [5]: 32-64 | Susceptibility category [6]: Resistant | MIC [6]: 32-64 | Susceptibility category [7]: Resistant | MIC [7]: 8-64 | Susceptibility category [8]: Resistant | MIC [8]: 64 | Susceptibility category [9]: Resistant | MIC [9]: 32 µg/mL (≈ 104 µM) | Susceptibility category [10]: Resistant | MIC [10]: 64 µg/mL (≈ 209 µM) | Susceptibility category [11]: Resistant | MIC [11]: 32-64 | Susceptibility category [12]: Resistant | MIC [12]: 64 | Susceptibility category [13]: Resistant | MIC [13]: 8-32 | Susceptibility category [14]: Variable | MIC [14]: 0.125-64 | Susceptibility category [15]: Variable/Resistant | MIC [15]: 4-32 | Susceptibility category [16]: Resistant | MIC [16]: 8-64 | Susceptibility category [17]: Resistant | MIC [17]: 64 | Susceptibility category [18]: Resistant | MIC [18]: 8-64 | Susceptibility category [19]: Resistant | MIC [19]: 16 µg/mL (≈ 52.2 µM) | Susceptibility category [20]: Variable | MIC [20]: 0.125-16 | Susceptibility category [21]: Resistant | MIC [21]: 32-64

CCC(C)n1ncn(-c2ccc(N3CCN(c4ccc(OCC5COC(Cn6cncn6)(c6ccc(Cl)cc6Cl)O5)cc4)CC3)cc2)c1=O (centres unmarked) [Itraconazole]
MIC [1]: 8-32 | MIC [2]: 0.03-8 | Susceptibility category [3]: Active | MIC [3]: 1-2 | MIC [4]: 16 | MIC [5]: 0.03-16 | Susceptibility category [6]: Active | MIC [6]: 0.5-2 | MIC [7]: 8-16 | Susceptibility category [8]: Active | MIC [8]: 0.125-0.5 | MIC [9]: 16 µg/mL (≈ 22.7 µM) | MIC [10]: 16 µg/mL (≈ 22.7 µM) | Susceptibility category [11]: Active | MIC [11]: 1-2 | MIC [12]: 0.06-16 | Susceptibility category [13]: Active | MIC [14]: 0.03-8 | MIC [15]: 8-16 | MIC [16]: 8-16 | Susceptibility category [17]: Active | MIC [17]: 0.25-0.5 | MIC [18]: 0.03-16 | MIC [19]: 16 µg/mL (≈ 22.7 µM) | MIC [20]: 0.03-4 | Susceptibility category [21]: Active | MIC [21]: 1-2

C[C@@H](c1ncncc1F)[C@](O)(Cn1cncn1)c1ccc(F)cc1F [Voriconazole]
Susceptibility category [1]: Intermediate | MIC [1]: 0.5-4 | Susceptibility category [2]: Resistant | MIC [2]: 8-16 | Susceptibility category [3]: Active | MIC [3]: 0.5-1 | Susceptibility category [4]: Variable | MIC [4]: 2-16 | Susceptibility category [5]: Active | MIC [5]: 0.125-1 | Susceptibility category [6]: Active | MIC [6]: 0.25-2 | Susceptibility category [7]: Variable | MIC [7]: 1-8 | Susceptibility category [8]: Intermediate | MIC [8]: 0.5-4 | Susceptibility category [9]: Active | MIC [9]: 0.5 µg/mL (≈ 1.43 µM) | Susceptibility category [10]: Intermediate | MIC [10]: 8 µg/mL (≈ 22.9 µM) | Susceptibility category [11]: Active | MIC [11]: 0.5-1 | Susceptibility category [12]: Variable | MIC [12]: 0.125-8 | Susceptibility category [13]: Active | Susceptibility category [14]: Variable | MIC [14]: 0.03-8 | Susceptibility category [15]: Active | MIC [15]: 0.25-0.5 | Susceptibility category [16]: Active | MIC [16]: 1-2 | Susceptibility category [17]: Active | MIC [17]: 0.125-0.5 | Susceptibility category [18]: Variable | MIC [18]: 0.03-16 | Susceptibility category [19]: Active | MIC [19]: 1 µg/mL (≈ 2.86 µM) | Susceptibility category [20]: Variable | MIC [20]: 0.03-16 | Susceptibility category [21]: Active | MIC [21]: 0.25-1
